Source: US7968508B2, “Benzophenone or benzoic acid anilide derivatives containing carboxyl groups as enzyme stabilizers” (priority 2007, dated 2011)

Biological target: Bacillus lentus alkaline protease F49 (Lederbergia lenta, UniProt P29599, A188P/L211D/S3T/V193M/V199I)
Experiment: Residual protease activity in the presence of an inhibitor
Format: biochemical
Details: compound 10 mM; substrate AAPFpNA; pH 8.6, 25° C.
Protocol: To verify that the compounds listed below have a protease activity-inhibiting effect, the residual proteolytic activity of the Bacillus lentus alkaline protease F49 (according to WO 95/23221 A1) was determined in the presence of these compounds.
The substrate succinyl-alanine-alanine-proline-phenylalanine-para-nitroanilide (AAPFpNA; Bachem L-1400) and 5×10^−9 and/or 1×10^−8 M of the protease were placed in 100 mM Tris buffer. The compounds to be tested as listed in Table 1 were then added in a final concentration of 10 mM. Each was dissolved in anhydrous DMSO, correcting for the effect of DMSO on the enzymatic activity by means of a corresponding reference with the same amount of DMSO but without the respective compound. The batches were incubated for 5 minutes at pH 8.6 and 25° C., where 1 U corresponds to 1 μmol substrate cleaved per minute.

Sequence of Bacillus lentus alkaline protease F49 (P29599 other isoform, or with tags, fused parts or gaps A188P/V193M/V199I/L211D): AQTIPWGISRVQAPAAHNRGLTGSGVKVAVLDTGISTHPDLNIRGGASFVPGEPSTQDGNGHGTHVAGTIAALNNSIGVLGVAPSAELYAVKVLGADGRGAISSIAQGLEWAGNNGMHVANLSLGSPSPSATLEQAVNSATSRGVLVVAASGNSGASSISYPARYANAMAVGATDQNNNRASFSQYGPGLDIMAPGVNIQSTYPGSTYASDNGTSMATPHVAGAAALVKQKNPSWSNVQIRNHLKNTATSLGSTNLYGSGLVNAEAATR

SMILES	relative strength as protease inhibitor and/or stabilizer (rank order V1, V2, V3, V4, V5)
O=C(O)c1cccc(NC(=O)c2ccccc2C(=O)O)c1 [V1, 2-[[(3-carboxyphenyl)amino]carbonyl]benzoic acid]	the strongest
O=C(O)c1ccc(C(=O)c2ccccc2C(=O)O)cc1 [V4, 2-(4-carboxybenzoyl)benzoic acid]	practically just as good as V3
